Results taken from US20020137929A1, “1 - (3-heterocyclylphenyl) isothiourea, -isourea, -guanidine and -amidine herbicidal agents” (Intellectual Property Department, BASF Aktiengesellschaft, priority 1998, published 2002).

How the values were obtained:
CYPSE (Flatsedge) = assay: Preemergence weed control under flooded paddy conditions; format: in vivo, Cyperus serotinus; conditions: rated 3-4 weeks after treatment
Summary of the method: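 Ratings on a 0-9 visual scale cover stand, vigor, malformation, size, chlorosis and overall appearance relative to a control, taken three to four weeks post-treatment. Application was into flood water over freshly sown silt loam at roughly 0.0313 to 0.500 kg/ha.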

[1] = test system: IPOHE (Morningglory, Ivyleaf); assay: Preemergence herbicidal evaluation; format: in vivo, Ipomoea hederacea; conditions: rated 4-5 weeks after treatment
Summary of the method: (§1)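 Seeds were mixed with potting soil and planted on about one inch of soil, then sprayed with test compound in aqueous acetone at about 0.0156 to 0.500 kg per hectare. Plants grew under standard greenhouse care and were visually rated 0-9 against untreated controls 4-5 weeks post-treatment.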

[2] = test system: TRZAWR (Wheat, Winter, cv Riband); assay: Postemergence herbicidal evaluation; format: in vivo, Triticum aestivum; conditions: postemergence
Summary of the method: (§2)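 Two-week seedlings sprayed postemergence at 40 psi; formulation: 1:1 acetone/water, 0.5% TWEEN 20; application ≈0.0156–0.500 kg/ha. Greenhouse grow-out, then 0–9 visual scoring at 4–5 weeks.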

ECHCG (Barnyardgrass) = assay: Preemergence herbicidal evaluation; format: in vivo, Echinochloa crus-galli; conditions: rated 4-5 weeks after treatment
Summary of the method: as §1

SETVI (Foxtail, Green) = assay: Preemergence herbicidal evaluation; format: in vivo, Setaria viridis; conditions: rated 4-5 weeks after treatment
Summary of the method: as §1

[3] = test system: ECHORC (Watergrass (Calif.)); assay: Preemergence weed control under flooded paddy conditions; format: in vivo, Echinochloa oryzoides; conditions: rated 3-4 weeks after treatment
Summary of the method: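 Seeds or propagules sown in silt loam kept flooded 1.5-3 cm; compounds in 50/50 acetone/water pipetted into flood water at about 0.0313 to 0.500 kg/ha. Greenhouse; visual 0-9 rating versus untreated control 3-4 weeks after treatment.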

ZEAMX (Corn, Field) [4] = assay: Preemergence herbicidal evaluation; format: in vivo, Zea mays; conditions: rated 4-5 weeks after treatment
Summary of the method: as §1

AMBEL (Ragweed, Common) = assay: Preemergence herbicidal evaluation; format: in vivo, Ambrosia artemisifolia; conditions: rated 4-5 weeks after treatment
Summary of the method: as §1

[5] = test system: CHEAL (Lambsquarters, Common); assay: Preemergence herbicidal evaluation; format: in vivo, Chenopodium album; conditions: rated 4-5 weeks after treatment
Summary of the method: as §1

CYPIR (Rice Flatsedge) = assay: Postemergence weed control under flooded paddy conditions; format: in vivo, Cyperus iria; conditions: postemergence weeds, rated 3 to 4 weeks after treatment
Summary of the method: (§3)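 Containers holding 3–5 cm weeds and rice at 1.5–2.5 leaves are flooded to 1.5–3 cm above soil. Compound in 50/50 v/v aqueous/acetone is then added directly to the water, about 0.0313–0.500 kg/ha. Plants are kept in the greenhouse and rated 0–9 visually at 3–4 weeks.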

GALAP (Galium) = assay: Preemergence herbicidal evaluation; format: in vivo, Galium aparine; conditions: rated 4-5 weeks after treatment
Summary of the method: as §1

CASOB (Sicklepod) = assay: Postemergence herbicidal evaluation; format: in vivo, Cassia obtusifolia; conditions: postemergence
Summary of the method: as §2

MOOVA (Monochoria) = assay: Postemergence weed control under flooded paddy conditions; format: in vivo, Monochoria vaginalis; conditions: postemergence weeds, rated 3 to 4 weeks after treatment
Summary of the method: as §3

ZEAMX (Corn, Field) [6] = assay: Postemergence herbicidal evaluation; format: in vivo, Zea mays; conditions: postemergence
Summary of the method: as §2

## CCOC(=O)CN1C(=O)C(Cc2ccccc2OC(C)C(=O)O)S/C1=N/c1cc(-n2c(=O)cc(C(F)(F)F)n(C)c2=O)c(F)cc1Cl (stereo not drawn) [Compound 114, 5-[o-(1-Carboxyethoxy)benzyl]-2-{{2-chloro-5-[3,6-dihydro-3-methyl-2,6-dioxo-4-(trifluoromethyl)-1(2H)-pyrimidinyl]-4-fluorophenyl}imino}-4-oxo-3-thiazolidineacetic acid, 3-ethyl ester]
CYPSE (Flatsedge); 0.0313 kg/ha
  CYPSE herbicidal effect rating: 3.5
CYPSE (Flatsedge); 0.0625 kg/ha
  CYPSE herbicidal effect rating: 4.5
CYPSE (Flatsedge); 0.1250 kg/ha
  CYPSE herbicidal effect rating: 3.5
CYPSE (Flatsedge); 0.2500 kg/ha
  CYPSE herbicidal effect rating: 4.5
[1]; rate 0.0156 kg/ha
  Preemergence herbicidal rating IPOHE: 0.0
[1]; rate 0.0313 kg/ha
  Preemergence herbicidal rating IPOHE: 0.0
[1]; rate 0.0625 kg/ha
  Preemergence herbicidal rating IPOHE: 0.0
[1]; rate 0.1250 kg/ha
  Preemergence herbicidal rating IPOHE: 9.0
[1]; rate 0.2500 kg/ha
  Preemergence herbicidal rating IPOHE: 7.0
[2]; rate 0.0158 kg/ha
  herbicidal rating TRZAWR: 2.0
[2]; rate 0.0315 kg/ha
  herbicidal rating TRZAWR: 3.0
[2]; rate 0.0630 kg/ha
  herbicidal rating TRZAWR: 4.0
ECHCG (Barnyardgrass); rate 0.0156 kg/ha
  Preemergence herbicidal rating ECHCG: 0.0
ECHCG (Barnyardgrass); rate 0.0313 kg/ha
  Preemergence herbicidal rating ECHCG: 0.0
ECHCG (Barnyardgrass); rate 0.0625 kg/ha
  Preemergence herbicidal rating ECHCG: 0.0
ECHCG (Barnyardgrass); rate 0.1250 kg/ha
  Preemergence herbicidal rating ECHCG: 2.0
ECHCG (Barnyardgrass); rate 0.2500 kg/ha
  Preemergence herbicidal rating ECHCG: 4.0
SETVI (Foxtail, Green); rate 0.0156 kg/ha
  Preemergence herbicidal rating SETVI: 0.0
SETVI (Foxtail, Green); rate 0.0313 kg/ha
  Preemergence herbicidal rating SETVI: 0.0
SETVI (Foxtail, Green); rate 0.0625 kg/ha
  Preemergence herbicidal rating SETVI: 2.0
SETVI (Foxtail, Green); rate 0.1250 kg/ha
  Preemergence herbicidal rating SETVI: 7.0
SETVI (Foxtail, Green); rate 0.2500 kg/ha
  Preemergence herbicidal rating SETVI: 9.0
[3]; 0.0313 kg/ha
  ECHORC herbicidal effect rating: 6.0
[3]; 0.0625 kg/ha
  ECHORC herbicidal effect rating: 7.0
[3]; 0.1250 kg/ha
  ECHORC herbicidal effect rating: 7.0
[3]; 0.2500 kg/ha
  ECHORC herbicidal effect rating: 8.0
ZEAMX (Corn, Field) [4]; rate 0.0156 kg/ha
  Preemergence herbicidal rating ZEAMX: 0.0
ZEAMX (Corn, Field) [4]; rate 0.0313 kg/ha
  Preemergence herbicidal rating ZEAMX: 1.0
ZEAMX (Corn, Field) [4]; rate 0.0625 kg/ha
  Preemergence herbicidal rating ZEAMX: 1.0
ZEAMX (Corn, Field) [4]; rate 0.1250 kg/ha
  Preemergence herbicidal rating ZEAMX: 1.0
ZEAMX (Corn, Field) [4]; rate 0.2500 kg/ha
  Preemergence herbicidal rating ZEAMX: 2.0
AMBEL (Ragweed, Common); rate 0.0156 kg/ha
  Preemergence herbicidal rating AMBEL: 0.0
AMBEL (Ragweed, Common); rate 0.0313 kg/ha
  Preemergence herbicidal rating AMBEL: 0.0
AMBEL (Ragweed, Common); rate 0.0625 kg/ha
  Preemergence herbicidal rating AMBEL: 0.0
AMBEL (Ragweed, Common); rate 0.1250 kg/ha
  Preemergence herbicidal rating AMBEL: 5.0
AMBEL (Ragweed, Common); rate 0.2500 kg/ha
  Preemergence herbicidal rating AMBEL: 7.0
[5]; rate 0.0156 kg/ha
  Preemergence herbicidal rating CHEAL: 9.0
[5]; rate 0.0313 kg/ha
  Preemergence herbicidal rating CHEAL: 9.0
[5]; rate 0.0625 kg/ha
  Preemergence herbicidal rating CHEAL: 7.0
[5]; rate 0.1250 kg/ha
  Preemergence herbicidal rating CHEAL: 9.0
[5]; rate 0.2500 kg/ha
  Preemergence herbicidal rating CHEAL: 9.0
CYPIR (Rice Flatsedge); Rate 0.0313 kg/ha
  Herbicidal rating CYPIR: 0.0
CYPIR (Rice Flatsedge); Rate 0.0625 kg/ha
  Herbicidal rating CYPIR: 0.0
CYPIR (Rice Flatsedge); Rate 0.1250 kg/ha
  Herbicidal rating CYPIR: 4.0
CYPIR (Rice Flatsedge); Rate 0.2500 kg/ha
  Herbicidal rating CYPIR: 7.0
GALAP (Galium); rate 0.0156 kg/ha
  Preemergence herbicidal rating GALAP: 0.0
GALAP (Galium); rate 0.0313 kg/ha
  Preemergence herbicidal rating GALAP: 0.0
GALAP (Galium); rate 0.0625 kg/ha
  Preemergence herbicidal rating GALAP: 3.0
GALAP (Galium); rate 0.1250 kg/ha
  Preemergence herbicidal rating GALAP: 7.0
GALAP (Galium); rate 0.2500 kg/ha
  Preemergence herbicidal rating GALAP: 9.0
CASOB (Sicklepod); rate 0.0158 kg/ha
  herbicidal rating CASOB: 1.0
CASOB (Sicklepod); rate 0.0315 kg/ha
  herbicidal rating CASOB: 1.0
CASOB (Sicklepod); rate 0.0630 kg/ha
  herbicidal rating CASOB: 1.0
MOOVA (Monochoria); Rate 0.0313 kg/ha
  Herbicidal rating MOOVA: 6.0
MOOVA (Monochoria); Rate 0.0625 kg/ha
  Herbicidal rating MOOVA: 8.0
MOOVA (Monochoria); Rate 0.1250 kg/ha
  Herbicidal rating MOOVA: 9.0
MOOVA (Monochoria); Rate 0.2500 kg/ha
  Herbicidal rating MOOVA: 9.0
ZEAMX (Corn, Field) [6]; rate 0.0158 kg/ha
  herbicidal rating ZEAMX: 6.5
ZEAMX (Corn, Field) [6]; rate 0.0315 kg/ha
  herbicidal rating ZEAMX: 7.0
ZEAMX (Corn, Field) [6]; rate 0.0630 kg/ha
  herbicidal rating ZEAMX: 7.0
